Measured values taken from US9993453B2, “Dosage forms and therapeutic uses L-4-chlorokynurenine” (VISTAGEN THERAPEUTICS, INC., priority 2013, dated 2018).
Read-outs that look alike come from different tables or passages of the source.

Key:
[1] = system: excitotoxic and ischemic neuronal damage; conditions: cited from earlier work
[2] = after administration; cited from earlier work
[3] = Phase 1b clinical study: plasma pharmacokinetics after single and multiple once-daily oral doses of AV-101; conditions: human plasma
Procedure: (§1) A Phase 1b, single-site, randomized, double-blind, placebo-controlled, study was conducted involving multiple oral doses of AV-101 in healthy male and female subjects. Subjects were randomized into one of three cohorts (360, 1,080, and 1,440 mg) and received a daily oral dose for 14 consecutive days. […] The safety, pharmacokinetics (PK), tolerability of treatment, and antihyperalgesic effect of AV-101 on capsaicin-induced hyperalgesia were assessed.
(§2) Blood was collected in 6-mL lithium heparin Vacutainer tubes. Samples were centrifuged, and the plasma was separated from the cells and frozen within 30 minutes after centrifugation. Centrifuged samples were placed on ice until they were placed in the freezer. Plasma samples were stored frozen at approximately −20° C. until their shipment to a contractor for analysis.
(§3) Baseline samples (0 minutes) were collected before the drug was administered on Day 1 and on Day 14. Samples were then collected at 0.5, 1, 1.5, 2, 4, 6, 8, 12, and 24 hours after dosing on Day land Day 14.
(§4) Both assays used a plasma sample volume of 50.0 μL.

[4] = molecular target: glycine B (GlyB) coagonist site on the NMDA-R (Homo sapiens, UniProt Q05586); conditions: cited from earlier work
activated astrocytes = conditions: within activated astrocytes (Reference 5); cited from earlier work
[5] = system: peripheral tissue inflammation and nerve injury; assay: Animal models of peripheral tissue inflammation and nerve injury; assay type: in vivo
seizures = conditions: rats, preclinical studies (Reference 11); cited from earlier work
[6] = human, in vivo, po
Procedure: as §1, §2, §3, §4

[7] = Safety and tolerability in humans (clinical study); assay type: in vivo, human; conditions: certain doses (360, 1,080, 1,440 mg daily oral)
Procedure: The compound is an antihyperalgesic.
“Without significant adverse effect” means that substantially all patients to whom L-4-chlorokynurenine is administered will have no more than a “mild” adverse event as defined by the U.S. Food and Drug Administration (FDA). The FDA defines a “mild adverse event” as an event that is easily tolerated by the subject, causing minimal discomfort and not interfering with everyday activities. In contrast, a “moderate adverse event” is an event that is sufficiently discomforting causing it to interfere with normal everyday activities.

[8] = Reported feelings of well-being (anti-depressive activity) in the clinical study; assay type: in vivo, human; conditions: zero subjects in the placebo group
Description: In the clinical study described in this application, 5 out of 26 subjects (as contrasted with zero subjects in the placebo group) affirmatively reported feelings of well being. This is consistent with reports that the glutamatergic system contributes to the pathophysiology of depression and that stress can induce changes in NMDA receptors. See, for example, Calabrese et al. “Stress-Induced Changes of Hippocampal NMDA Receptors: Modulation by Duloxetine Treatment,” PLoS ONE 2012, 7(5): e37916. doi:10.1371/journal.pone.0037916.

[9] = system: capsaicin-induced hyperalgesia; assay: Antihyperalgesic effect on capsaicin-induced hyperalgesia (VAS pain assessments) in Phase 1b study; assay type: in vivo, human
Procedure: On Day 1 and Day 14 of the clinical study, two intradermal injections of 250 μg of capsaicin were injected sequentially into the volar aspect of alternate forearms to produce burning pain, secondary hyperalgesia, and a flare. The capsaicin USP (United States Pharmacopeia) was prepared according to the site's standard procedure and dissolved in 20% cyclodextrin at a concentration of 10 mg/mL.
The first capsaicin injection in one forearm was given 1 hour after oral administration of AV-101 or placebo, and the second capsaicin injection was given in the other forearm 2 hours after the administration of AV-101 or placebo. The neurosensory testing began immediately at each capsaicin injection. The serial pain assessments using a 100-mm visual analog scale (VAS) occurred at preinjection and 0, 5, 10, 15, 30, 45, and 60 minutes after each capsaicin injection. The examiner asked the subject to rate the intensity by using the VAS of the spontaneous pain and elicited pain from the application of a 5.18 von Frey hair, 40° C. probe, and gentle stroking with a 1-inch foam brush. The VAS consisted of a 100-mm line with “no pain” written at the 0-mm end and the “worst imaginable pain” written at the 100-mm end. The distance in millimeters provided the pain measurement.
At least eight determinations of the hyperalgesic area borders were made using the same assessments and starting at different angles. Additionally, subjects were asked to rate the pain intensity of a 1-minute 45° C. heat stimulus (brief thermal stimulation) applied to the anterior thigh at 4.5 hours (±5 minutes) after study drug administration, then every 30 minutes (±5 minutes) through 6 hours after study drug administration. A radiant temperature probe was applied to fix the skin temperature at 36° C. during the pain assessments. Subjects used the VAS for all pain assessments.
All study assessment time points were anchored to Time 0, the time of study drug administration. For the capsaicin injection at 1 hour after dosing, the assessment interval (i.e., time after dosing of the study drug) was 60 to 120 minutes, during which time assessments occurred at approximately 60, 65, 70, and 75 minutes and then every 15 minutes through the 120-minute time point (i.e., 0, 5, 10, 15, 30, 45, and 60 minutes after capsaicin injection). The second injection of capsaicin was administered approximately 2 hours after dosing of the clinical trial material (CTM), and the assessment interval (i.e., time after dosing of the CTM) was 120 to 180 minutes. The serial pain assessments followed the same schedule, as described after the first capsaicin injection.
The primary efficacy endpoint was the analgesic response to spontaneous pain at each dose level of AV-101 120 to 180 minutes after dosing on Day 14.

dopaminergic neurons = conditions: brains of rats (Reference 7); cited from earlier work
[10] = Day 1, after 1,440-mg oral dose of L-4-chlorokynurenine

## O=C(O)c1cc(O)c2ccc(Cl)cc2n1 [7-chlorokynurenic acid]
[1]
  Prevention of excitotoxic and ischemic neuronal damage: prevent excitotoxic and ischemic neuronal damage
[2]
  Crossing of the blood-brain barrier / access to the CNS: does not cross the blood-brain barrier
[3]; Day 1, after 360-mg oral dose of L-4-chlorokynurenine
  Mean 7-chlorokynurenic acid Cmax: 42.7 ng/mL
[3]; [10]
  Mean 7-chlorokynurenic acid AUCO-t: 985 ng·b/mL
  Mean 7-chlorokynurenic acid Cmax: 314 ng/mL
[3]; Day 1, after lowest dose (360 mg) of L-4-chlorokynurenine
  Mean 7-chlorokynurenic acid AUCO-t: 156 ng·h/mL
[3]; after oral L-4-chlorokynurenine 360 to 1,440 mg
  Dose linearity of mean 7-chlorokynurenic acid Cmax and AUCO-t: approximately dose linear
[3]; once-daily oral L-4-chlorokynurenine for 14 days
  Mean Cmax and AUCO-t of 7-chlorokynurenic acid on Day 14 compared with Day 1: slightly lower on Day 14 than those on Day 1
[4]
  GlyB antagonist potency and specificity: One of the most potent and specific GlyB antagonists

## Nc1cc(Cl)ccc1C(=O)CC(N)C(=O)O [L-4-chlorokynurenine]
Activated astrocytes
  Conversion to 7-chlorokynurenic acid: efficiently converted
[2]
  Crossing of the blood-brain barrier / access to the CNS: readily gains access to the central nervous system
[5]; at doses that produce antihyperalgesic effects
  Tolerability in animal models: well tolerated
[5]; three animal models of peripheral tissue inflammation and nerve injury
  Antihyperalgesic actions in animal models: potent antihyperalgesic actions
seizures
  Anti-seizure activity: anti-seizure activity
[6]
  Dose linearity of mean L-4-chlorokynurenine Cmax and AUCO-∞: approximately dose linear, although not proportional
  Mean Cmax and AUCO-t of L-4-chlorokynurenine on Day 14 compared with Day 1: slightly lower on Day 14 than those on Day 1
  Mean L-4-chlorokynurenine AUCO-t: 196000 ng·h/mL
  Mean L-4-chlorokynurenine Tmax: ~2 h
  Mean t½ of L-4-chlorokynurenine: 1.64 to 1.82 h
[6]; 360 mg
  Mean L-4-chlorokynurenine AUCO-t: 64000 ng·h/mL
[7]
  Safety and tolerability in humans: safe and tolerable in humans without substantial side effects or any significant adverse effects
[8]
  Subjects affirmatively reporting feelings of well being: 5 out of 26
[9]; 1,080 mg (Cohort 2) versus placebo
  Least squares means of the AUPC for allodynia pain, mechanical hyperalgesia pain and heat hyperalgesia pain: consistent decrease
[9]; 1080 mg oral daily, n=13, 100-mm VAS, placebo 77.00
  MAXPAIN, Spontaneous Pain: 75.08
[9]; 1080 mg oral daily, n=13, 100-mm VAS, placebo 79.50
  MAXPAIN, Allodynia Pain (foam brush): 70.92
[9]; 1080 mg oral daily, n=13, 100-mm VAS, placebo 79.75
  MAXPAIN, Mechanical Allogesia: 66.23
[9]; 1080 mg oral daily, n=13, 100-mm VAS, placebo 84.75
  MAXPAIN, Heat Allogesia: 78.85
[9]; 120 to 180 minutes Day 1, 60 to 180 minutes Days 1 and 14, versus placebo
  Secondary efficacy endpoints (AUPC for spontaneous pain, elicited pain from von Frey hair and 40° C. probe): no significant changes
[9]; each dose level, 120 to 180 minutes after dosing on Day 14, versus placebo
  Area under the pain time curve (AUPC) for spontaneous pain, primary efficacy endpoint: no significant change
[9]; humans, at the clinical dosages
  Subject-reported relief from neuropathic pain, specifically hyperalgesia pain: subjects reported relief from neuropathic pain
Dopaminergic neurons
  Firing rate and burst firing activity of dopaminergic neurons: increase the firing rate and burst firing activity
